Measurements published in patent US7887850B2, “Method for reducing pathogens in the gastrointestinal tract of poultry and other food animals” (Ecolab Inc., priority 2004, dated 2011).

Test system: broilers
Procedure: A total of 320 broilers (35 days of age) were randomly allocated to 64 pens (5 birds/pen). […] All solutions were prepared and replaced twice a day, and all birds were given free access to the solutions. Water intake, feed consumption, weight gain, and mortality was monitored during the seven day experimental period.

O=C(O)CC(O)(CC(=O)O)C(=O)O [citric acid]
levels that did not affect live performance (broilers, drinking water, seven days, percent by weight): up to 0.4%
differences in mortality during the experiment (chicken (broilers), in vivo): No significant (P>0.05) differences
response of daily and 7-day water consumption to graded levels in the water (in vivo): Linear and quadratic responses
